Assay results as given in the supplement of paper PMC11616607.

How the values were obtained:
Experiment in all cases: drug sensitivity score (DSS) from 5-point dose-response viability curve (DSS (area-under-curve based score)); higher = more sensitive (stronger growth inhibition or killing); extreme values may be limits of the assay
Conditions in all cases: exposure time: 72 h; concentration range: 5 concentrations over 10,000-fold range
CAOV3 = tested on: CAOV3
Outline: (§1)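 For the drug sensitivity score, obtained per cell line and drug in Breeze software, larger values mean greater sensitivity. No response corresponds to a score of zero. Ovarian cancer and normal ovarian cells were seeded at 1,500 per well into 384-well plates already holding acoustically dispensed drugs (Echo 550, DMSO or water, five concentrations over a 10,000-fold range) and incubated 3 days at 37°C, 5% CO2. CellTiter-Glo luminescence on a PHERAstar FS gave the viability readout.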

COV318 = tested on: COV318
Outline: as §1

COV362 = tested on: COV362
Outline: as §1

HOSE1C = tested on: HOSE1C
Outline: as §1

HOSE2C = tested on: HOSE2C
Outline: as §1

JHOS2 = tested on: JHOS2
Outline: as §1

Kuramochi = tested on: Kuramochi
Outline: as §1

OV90 = tested on: OV90
Outline: as §1

OVCAR4 = tested on: OVCAR4
Outline: as §1

OVCAR5 = tested on: OVCAR5
Outline: as §1

OVCAR8 = tested on: OVCAR8
Outline: as §1

Ovsaho = tested on: Ovsaho
Outline: as §1

| Compound | drug sensitivity score (CAOV3) | drug sensitivity score (COV318) | drug sensitivity score (COV362) | drug sensitivity score (HOSE1C) | drug sensitivity score (HOSE2C) | drug sensitivity score (JHOS2) | drug sensitivity score (Kuramochi) | drug sensitivity score (OV90) | drug sensitivity score (OVCAR4) | drug sensitivity score (OVCAR5) | drug sensitivity score (OVCAR8) | drug sensitivity score (Ovsaho) |
| --- | --- | --- | --- | --- | --- | --- | --- | --- | --- | --- | --- | --- |
| Nc1ncn([C@@H]2O[C@H](CO)[C@@H](O)[C@H]2O)c(=O)n1 [Azacitidine] | 1.7 | 1.1 | 0.7 | 0 | 0 | 4.4 | 0.9 | 3.8 | 1.6 | 2.2 | 3.4 | 3.5 |
| Cc1cc(-c2nc(-c3ccc(OC(F)(F)F)cc3)no2)nn1Cc1ccnc(N2CCN(C3CC3)CC2)c1 [BAY 87-2243] | 8.4 | 2.7 | 0 | 0 | 0 | 0 | 2.7 | 23.3 | 4.7 | 4.8 | 28.8 | 1.6 |
| CC[C@@H]1C(=O)N(C)c2cnc(Nc3ccc(C(=O)NC4CCN(C)CC4)cc3OC)nc2N1C1CCCC1 [BI 2536] | 18.3 | 3.9 | 2.1 | 12.5 | 8.7 | 11.9 | 11.4 | 15 | 3.9 | 17.7 | 23.5 | 19.7 |
| COc1c(C)cnc(Cn2cnc3c(Cl)nc(N)nc32)c1C [BIIB021] | 16 | 7 | 9.5 | 15 | 20.5 | 20.6 | 9 | 18.5 | 9.9 | 17.3 | 19.7 | 3.3 |
| CC1(C)C(C(=O)Nc2ccc(S(=O)(=O)c3ccc(NC(=O)C4C(C)(C)C4(C)C)cc3)cc2)C1(C)C [BRD7116] | 0.3 | 0.1 | 0 | 0 | 0 | 0.7 | 2.1 | 0 | 2.1 | 2.1 | 0 | 3.8 |
| O=C(Nc1cccc(Nc2ncc(Br)c(NCCc3cnc[nH]3)n2)c1)N1CCCC1 [BX-912] | 10.3 | 0.4 | 1.3 | 4.5 | 8 | 2.5 | 1.4 | 7.4 | 3.7 | 2.4 | 4.7 | 3.5 |
| Cc1ccc(NC(=O)c2ccc(CN3CC[C@H](N(C)C)C3)c(C(F)(F)F)c2)cc1Nc1nccc(-c2cncnc2)n1 [Bafetinib] | 0 | 0 | 0 | 0 | 0 | 0 | 0 | 3 | 0 | 0 | 0 | 0 |
| CCS(=O)(=O)N1CC(CC#N)(n2cc(-c3ncnc4[nH]ccc34)cn2)C1 [Baricitinib] | 0 | 0 | 0 | 0 | 0 | 0 | 0 | 0 | 0 | 0 | 0 | 0 |
| O=C(/C=C/c1cccc(S(=O)(=O)Nc2ccccc2)c1)NO [Belinostat] | 13.6 | 9.1 | 7.3 | 23.4 | 18.1 | 10 | 10.2 | 13.5 | 8.6 | 17.2 | 18.2 | 11.7 |
| N#CC(c1ccnc(OCc2ccc(CN3CCOCC3)cc2)n1)c1nc2ccccc2s1 (configuration not stated) [Bentamapimod] | 1.5 | 1.3 | 3.8 | 0 | 0.3 | 1.4 | 2 | 5.5 | 1.8 | 4.5 | 2.3 | 1.1 |
| C=C(c1ccc(C(=O)O)cc1)c1cc2c(cc1C)C(C)(C)CCC2(C)C [Bexarotene] | 1.5 | 0.1 | 0 | 0 | 0 | 1.3 | 0.1 | 1.3 | 0 | 0 | 0.1 | 0 |
| CC(O)(CS(=O)(=O)c1ccc(F)cc1)C(=O)Nc1ccc(C#N)c(C(F)(F)F)c1 (configuration not stated) [Bicalutamide] | 0 | 0 | 0 | 8.4 | 0 | 0 | 0.2 | 0 | 0.5 | 0.7 | 0.3 | 0 |
| CCNC(=O)CCC/C=C\C[C@@H]1[C@@H](/C=C/[C@@H](O)CCc2ccccc2)[C@H](O)C[C@@H]1O [Bimatoprost] | 0 | 0 | 0 | 0 | 0 | 0 | 0 | 0 | 0 | 0 | 0 | 0 |
| Cn1cnc2c(F)c(Nc3ccc(Br)cc3F)c(C(=O)NOCCO)cc21 [Binimetinib] | 7.6 | 0 | 1.3 | 0 | 0 | 1.5 | 3.5 | 13.4 | 1.7 | 7.1 | 0 | 6.2 |
| Cc1sc2c(c1C)C(c1ccc(Cl)cc1)=N[C@@H](CC(=O)Nc1ccc(O)cc1)c1nnc(C)n1-2 [Birabresib] | 13.1 | 1.7 | 2.3 | 15.1 | 13.4 | 5.4 | 12.5 | 10.2 | 8.1 | 10.8 | 12.6 | 12.9 |
| CC[C@H](NC(=O)[C@H](C)NC)C(=O)N1C[C@@H](O)C[C@H]1Cc1c(-c2[nH]c3cc(F)ccc3c2C[C@@H]2C[C@H](O)CN2C(=O)[C@H](CC)NC(=O)[C@H](C)NC)[nH]c2cc(F)ccc12 [Birinapant] | 9.2 | 0.2 | 0 | 0 | 0 | 5.6 | 0.4 | 0.8 | 12.6 | 0 | 1.9 | 11.6 |
